15 compounds from patent US8343698B2, “Photoreceptor, method of manufacturing same, image formation method, image forming apparatus, and process cartridge” (Ricoh Company, Ltd., priority 2009, dated 2013) can be followed below.

The test system of this data set is salmonella of TA1535. Nature of the data set: Mutation test (Ames test), plate method. It counts as cell-based. As to conditions: strain TA1535, plate method, under metabolic activity condition, 625 to 10,000 micro gram/plate, maximum number of colonies divided by colonies in control solvent, tested on the TMPTA monomer of each example. The text has this: One time absorption refinement treatment is effective but multiple time absorption refinement treatments are preferable to improve the removal effect of the impurities. A number of methods for use in the present invention of measuring the safety of the radical polymerizable monomer can be used. Ames test (mutagen test) is employed in the present invention.
Ames test is a test in which germs are used. The strain among salmonellas used in the test is histidine auxotroph (his−), which cannot synthesize histidine. In the test, the number of colonies of recoveries from histidine auxotroph (his−) to (his+) which can synthesize histidine again as a result of a test material reacting with the strain is counted to determine the mutation property of the material.
Currently, among these strains, TA1535, TA1537, TA100, TA98 or WP2uvrA—are generally used. When TA1535 is used, radical polymerizable monomers in the market are frequently positive. Therefore, TA1535 test is employed in the present invention.
“Mutation test in Ordinance on Safety and Hygiene—Guideline and GLP— (published by Japan industrial Safety & Health Association)” is referred to with regard to the specific test method.
A mutation test (Ames test) is employed to check the safety in the present invention.
A plate method is adopted as the test method in the present invention.
TA1535 is used as the strain and the test is conducted under the condition of metabolic activity.
Add 250 mg of dimethylsulfoxide (DIMSO) to 250 mg of a radical polymerizable monomer having at least 3 functional groups with no charge transport structure followed by ultrasonic treatment for one minute to prepare a clear solution for the test.
5 kinds of densities (625 micro gram/plate, 1,250 micro gram/plate, 2,500 micro gram/plate, 5,000 micro gram/plate, and 10,000 micro gram/plate) of the radical polymerizable monomer having at least 3 functional groups with no charge transport structure are used. Among these, the quotient (referred to as “colony increase multiple” in the present invention) obtained by dividing the maximum number of the colonies with the number of colonies in the control solvent is used for comparison. The smaller the quotient, the safer the test sample.
A general note: The Ames test detects mutagens through reverse mutation in bacteria.

On to `C=CC(=O)OCC(CC)(COC(=O)C=C)COC(=O)C=C` [Comp. 3, trimethylol propane triacrylate], for which the Colony increase multiple came to 2.7. In addition, for the setting “listed as Comparative Example 3”, the Colony increase multiple turned out to be 2.7.
`C=CC(=O)OCC(CC)(COC(=O)C=C)COC(=O)C=C` [Ex. 4, trimethylol propane triacrylate] gave a Colony increase multiple of 1.1. This compound displayed a Colony increase multiple (listed as Example 4) of 1.1.
In turn, `C=CC(=O)OCC(CC)(COC(=O)C=C)COC(=O)C=C` [Ex. 2, trimethylol propane triacrylate] came in with a Colony increase multiple of 1.1. Also, the Colony increase multiple (listed as Example 2) worked out at 1.1.
Compound `C=CC(=O)OCC(CC)(COC(=O)C=C)COC(=O)C=C` [Ex. 3, trimethylol propane triacrylate] yielded a Colony increase multiple of 1.2. Also, under “listed as Example 3”, the Colony increase multiple worked out at 1.2.
`C=CC(=O)OCC(CC)(COC(=O)C=C)COC(=O)C=C` [Ex. 8, trimethylol propane triacrylate] yielded a Colony increase multiple of 2.6. Under “listed as Example 8”, this compound gave a Colony increase multiple of 2.6.
As to `C=CC(=O)OCC(CC)(COC(=O)C=C)COC(=O)C=C` [Ex. 11, trimethylol propane triacrylate], the Colony increase multiple was 1.4. The compound also returned a Colony increase multiple (listed as Example 11) of 1.4.
On to `C=CC(=O)OCC(CC)(COC(=O)C=C)COC(=O)C=C` [Ex. 7, trimethylol propane triacrylate], for which the Colony increase multiple amounted to 1.9. The compound also gave a Colony increase multiple (listed as Example 7) of 1.9.
In turn, `C=CC(=O)OCC(CC)(COC(=O)C=C)COC(=O)C=C` [Ex. 10, trimethylol propane triacrylate] came in with a Colony increase multiple of 1.9. Further, for the setting “listed as Example 10”, the Colony increase multiple is 1.9.
In turn, `C=CC(=O)OCC(CC)(COC(=O)C=C)COC(=O)C=C` [Comp. 2, trimethylol propane triacrylate] had a Colony increase multiple of 2.7. Under “listed as Comparative Example 2”, this compound displayed a Colony increase multiple of 2.7.
`C=CC(=O)OCC(CC)(COC(=O)C=C)COC(=O)C=C` [Ex. 9, trimethylol propane triacrylate] displayed a Colony increase multiple of 2.1. The compound further yielded a Colony increase multiple (listed as Example 9) of 2.1.
The compound `C=CC(=O)OCC(CC)(COC(=O)C=C)COC(=O)C=C` [Ex. 12, trimethylol propane triacrylate] had a Colony increase multiple of 1.4. Under “listed as Example 12”, this compound gave a Colony increase multiple of 1.4.
As for `C=CC(=O)OCC(CC)(COC(=O)C=C)COC(=O)C=C` [Ex. 6, trimethylol propane triacrylate], the Colony increase multiple was found to be 2.5. Moreover, the Colony increase multiple (listed as Example 6) was found to be 2.5.
As to `C=CC(=O)OCC(CC)(COC(=O)C=C)COC(=O)C=C` [Ex. 5, trimethylol propane triacrylate], the Colony increase multiple was found to be 1.4. The compound also registered a Colony increase multiple (listed as Example 5) of 1.4.
The compound `C=CC(=O)OCC(CC)(COC(=O)C=C)COC(=O)C=C` [Ex. 1, trimethylol propane triacrylate] registered a Colony increase multiple of 1.2. The compound also gave a Colony increase multiple (listed as Example 1) of 1.2.
With `C=CC(=O)OCC(CC)(COC(=O)C=C)COC(=O)C=C` [Comp. 1, trimethylol propane triacrylate], the Colony increase multiple stood at 3.4. This compound had a Colony increase multiple (listed as Comparative Example 1) of 3.4.
